How the values were obtained:
mTOR kinase domain = mTOR kinase domain (Homo sapiens, UniProt P42345); assay: in vitro mTOR kinase assay (γ-32P-ATP, purified kinase domain); format: biochemical; details: 10 μM ATP
Procedure: Purified mTOR kinase domain was incubated with inhibitors at 2- or 4-fold dilutions over a concentration range of 50-0.001 μM or with vehicle (0.1% DMSO) in the presence of 10 μM ATP, 2.5 μCi of γ-32P-ATP and substrate. Reactions were terminated by spotting onto nitrocellulose or phosphocellulose membranes, depending on the substrate; this membrane was then washed 5-6 times to remove unbound radioactivity and dried. Transferred radioactivity was quantified by phosphorimaging and IC50 values were calculated by fitting the data to a sigmoidal dose-response using Prism software.

cellular proliferation = assay: inhibition of cellular proliferation; format: cell-based
mTOR1/2 signaling = assay: Western blot of kidney crude lysates of treated PKD(V/V) mice; format: in vivo; details: 0.5 mg/kg p.o., kidney lysates 2 hours later
Procedure: (§1) In order to study mechanisms of selective intervention for treating PKD, PKD(V/V) (“V/V”) mice were used. V/V mice are an animal model of PKD which are homozygous for a mutation in PKD 1 (the gene implicated in 85% of PKD). (Yu S, et al. Proc. Natl. Acad. Sci. U.S.A. 2007; 104: 18688-18693.) These mice develop severe PKD rapidly during the postnatal period. P11 V/V mice were treated with Compound A (0.5 mg/kg; “+”) or vehicle (“−”) p.o. Animals were sacrificed 2 hours later and kidney crude lysates were prepared and subjected to Western blot analysis.
Whole kidneys were isolated from mice and immediately flash frozen. Tissues were ground using a mortar and pestle under a blanket of liquid nitrogen followed by homogenization in lysis buffer. Supernatants were loaded in gels and proteins were separated via electrophoresis. Primary antibodies were used to assess the following proteins: p-Akt (S473), p-Akt (T308), total-Akt, p-4E-BP1, total-4E-BP1, p-S6 ribosomal protein, and total-S6 ribosomal protein.

PKD(V/V) mice [1] = assay: body and kidney mass in PKD(V/V) mice treated P5-P11; format: in vivo
Procedure: as §1
(§2) To examine Compound A effects on kidney size in V/V mice, V/V mice were treated from P5-P11 with either vehicle or Compound A. Compound A dosing was 0.25 mg/kg on P5/P6, then 0.25 mg/kg bid on P7/P8, then 0.5 mg/kg bid on P9-11. Animals were sacrificed 2 hours after […] dose; kidneys were weighed, and one kidney was subjected to western blot and one to sectioning for histology.

PKD(V/V) mice [2] = assay: kidney histology (H&E sections) in PKD(V/V) mice treated P5-P11; format: in vivo; details: P5-P11 dosing
Procedure: as §2
Sagittal sections of the left kidney from mice treated with vehicle or Compound A were fixed, embedded in paraffin, and sectioned for histological analysis as described in Piontek K B, et. al, (2004) J Am Soc Nephrol 15:3035-33043. Sections were stained with H&E at observed with a microscope at 4×, […], 20×, and 40× magnification. (FIGS. 6-9) Cyst volume was lower and parenchyma was increased in Compound A-treated mice, quantitated using ImageJ software. The number of glomeruli was increased in the Compound A treated section as compared to the vehicle treated section. […] (FIG. 9)

PI3K (α, β, γ, and δ) = assay: selectivity of kinase inhibition, mTOR versus PI3K; format: biochemical; details: selectivity mTOR over PI3K α
[3] = left kidney sagittal sections, ImageJ

Sequence of mTOR kinase domain (P42345 2156-2469 limits assumed, species assumed): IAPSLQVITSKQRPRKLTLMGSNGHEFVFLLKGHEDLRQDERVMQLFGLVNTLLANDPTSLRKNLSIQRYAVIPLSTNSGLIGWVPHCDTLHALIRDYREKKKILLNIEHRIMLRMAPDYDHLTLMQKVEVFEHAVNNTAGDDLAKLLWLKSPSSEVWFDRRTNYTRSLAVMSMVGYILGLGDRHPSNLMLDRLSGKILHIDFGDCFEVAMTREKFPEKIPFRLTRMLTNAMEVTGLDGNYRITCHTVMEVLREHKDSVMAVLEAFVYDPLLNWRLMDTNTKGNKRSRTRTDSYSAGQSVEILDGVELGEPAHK

| SMILES | IC50 (mTOR kinase domain) [nM] | IC50 (cellular proliferation) [nM] | Baseline phosphorylation of S6 in wt and mutant mice (mTOR1/2 signaling) | S6-RP expression (mTOR1/2 signaling) | Akt S473 and T308 phosphorylation (mTOR1/2 signaling; P11 V/V mice) | Total Akt (mTOR1/2 signaling; P11 V/V mice) | p4E-BP1 in mutant mice (mTOR1/2 signaling; P11 V/V mice) | pS6-RP in mutant mice (mTOR1/2 signaling; P11 V/V mice) | Baseline phosphorylation and expression of 4E-BP1 in wt mice (mTOR1/2 signaling; wt mice) | kidney mass in Het/WT (PKD(V/V) mice [1]; Het/WT mice, P5-P11 dosing, p=0.22) | normalized kidney mass in Het/WT mice (PKD(V/V) mice [1]; Het/WT mice, P5-P11 dosing, p=0.5) | Body mass in mutant and in Het/WT mice (PKD(V/V) mice [1]; P5-P11, 0.25 mg/kg P5/P6, 0.25 mg/kg bid P7/P8, 0.5 mg/kg bid P9-11, p<0.05) | Average kidney mass, compared to vehicle treated mutants (PKD(V/V) mice [1]; V/V mutants, P5-P11 dosing, p=0.007) | Normalized kidney mass (combined kidney weight/body weight), compared with vehicle-treated mutants (PKD(V/V) mice [1]; V/V mutants, P5-P11 dosing, p=0.01) | number of glomeruli, compared to the vehicle treated section (PKD(V/V) mice [2]; 20× magnification) | appearance of the glomeruli, compared to the untreated kidney (PKD(V/V) mice [2]; 40× magnification) | Cyst volume (PKD(V/V) mice [2]; [3]) | parenchyma (PKD(V/V) mice [2]; [3]) | more effective in inhibiting mTOR activity than that of PI3K (α, β, γ, and δ) (PI3K (α, β, γ, and δ)) |
| --- | --- | --- | --- | --- | --- | --- | --- | --- | --- | --- | --- | --- | --- | --- | --- | --- | --- | --- | --- |
| CC(C)(CO)n1nc(-c2ccc3oc(N)nc3c2)c2c(N)ncnc21 [Compound A] | < 100 | 10 to 100 | markedly attenuated | relatively unaffected | moderately attenuated | unaffected | markedly inhibited | markedly inhibited | markedly attenuated | not significantly changed | no significant effect | decreased | significantly lower | significantly lower | increased | appeared normal | lower | increased | over 1000 × |
| CC(CO)n1nc(-c2ccc3oc(N)nc3c2)c2c(N)ncnc21 (stereo not drawn) [Compound B] | < 100 | – | – | – | – | – | – | – | – | – | – | – | – | – | – | – | – | – | – |
| CC(=O)Nc1nc2cc(-c3nn(C(C)C)c4ncnc(N)c34)ccc2o1 [Compound D] | < 100 | – | – | – | – | – | – | – | – | – | – | – | – | – | – | – | – | – | – |
